Test results from patent publication US20080089862A1, “PROTEASE INHIBITORS AND METHOD OF SCREENING THEREOF” (priority 2005, published 2008).
No end group written: not given here.

Target: T1, MBP-scNS3 (Hepatitis C virus genotype 1b, UniProt P26663)
T1 construct: made in house
Assay: Bacterial genetic screening, blue/white colonies on X-gal indicative plates
Assay type: cell-based, Hepatitis C virus (HCV) genotype Ib
Settings: IPTG-induced test bacteria (pMGT14); blue = NS3 inhibited
From the text: Applying the bacterial genetic screening to isolate NS3-inhibitory scFvs. Affinity selected phages were pooled and used as source for scFv DNA by digestion of phagemid DNA with Ncol and Notl. The pooled insert DNA was cloned into pMALc-NN that had been digested with the same enzymes essentially as described (Bach et al., 2001). In pMALc-NN, expression of MBP-scFvs is under the control of an IPTG-inducible tac promoter and the plasmid carries an ampicillin resistance cassette and the colEl origin of replication and is thus compatible with pMGT14 or pMGT15. The plasmid pool was introduced into E. coli TG-I cells already containing the pMGT14 plasmid. The transformants were plated to yield individual colonies on 2xYT agar plates supplemented with 0.004% (w/v) X-gal, 100 μg/ml ampicillin, 50 μg/ml kanamycin, 0.2% arabinose and 0.05 mM IPTG. Blue colonies were picked and pMALc-NN-scFv DNA was recovered and re-introduced into pMGT14 expressing cells to validate the results of the initial screening.
The expression platform was constructed as follows: C-terminal peptides were introduced by PCR using pMALc-NN (Bach et al., 2001) as template and recloning into the same backbone. The ligated vectors were introduced into the “bacterial test strain” and IPTG induction was used to overexpress the peptides. […]

Sequence | colony colour on X-gal plates
DYKDDDDK [FLAG epitope] | colorless
EASEDVVC (not fully specified) ["product-like" peptide (NS5A/B site P side), control construct] | blue
